Assay results: ChEMBL document CHEMBL4325929, “Discovery of Tetrahydropyridopyrimidines as Irreversible Covalent Inhibitors of KRAS-G12C with In Vivo Activity” (ACS Med Chem Lett, 2018)
Each block holds one molecule with its values, some of them ahead of it. Active and inactive are the calls of the source. The rule behind the calls is not given here.

Key:
GTPase KRas = GTPase KRas (Homo sapiens, UniProt P01116, G12C); assay: Inhibition of KRAS G12C mutant in human NCI-H358 cells assessed as reduction in ERK phosphorylation measured after 3 hrs by Western blot analysis; type: cell-based
GTPase KRas, sequence (P01116 whole entry G12C): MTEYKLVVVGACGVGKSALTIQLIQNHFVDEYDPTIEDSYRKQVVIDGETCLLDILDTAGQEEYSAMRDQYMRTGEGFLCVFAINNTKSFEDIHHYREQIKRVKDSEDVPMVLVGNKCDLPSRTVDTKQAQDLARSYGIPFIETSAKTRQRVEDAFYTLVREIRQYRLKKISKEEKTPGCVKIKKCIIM

[1] = test system: GTPase KRas (Homo sapiens), P01116 [G12C]; assay: Binding affinity to KRAS G12C mutant (unknown origin) assessed as covalent modification at 3 uM after 15 mins by LC-MS analysis relative to control
GTPase KRas (Homo sapiens), P01116 [G12C], sequence (P01116 whole entry G12C): as above

[2] = test system: GTPase KRas (Homo sapiens), P01116 [G12C]; assay: Binding affinity to KRAS G12C mutant (unknown origin) assessed as covalent modification at 5 uM after 3 hrs by LC-MS analysis relative to control
MDR1 [3] = assay: Apparent permeability across apical to basolateral side in pig LLC-PK1 cells expressing MDR1 at 1 uM; type: ADME, cell-based, Sus scrofa
MDR1 [4] = assay: Apparent permeability across basolateral to apical side in pig LLC-PK1 cells expressing MDR1 at 1 uM; type: ADME, cell-based, Sus scrofa
[5] = Protein binding in CD-1 mouse plasma at 1 uM by equilibrium dialysis method; type: ADME, cell-free; settings: read-out: PPB (converted)
[6] = Clearance in CD-1 mouse at 3 mg/kg, iv; type: ADME, organism-based; settings: in vivo
[7] = Half life in CD-1 mouse at 3 mg/kg, iv; type: ADME, organism-based; settings: in vivo
[8] = Volume of distribution at steady state in CD-1 mouse at 3 mg/kg, iv; type: ADME, organism-based; settings: in vivo, read-out: Vdss
[9] = Cmax in CD-1 mouse at 100 mg/kg, po; type: ADME, organism-based; parameters: dose 100 mg/kg, route oral; settings: in vivo
[10] = Tmax in CD-1 mouse at 100 mg/kg, po; type: ADME, organism-based; settings: in vivo
[11] = AUC (infinity) in CD-1 mouse at 100 mg/kg, po; type: ADME, organism-based; parameters: dose 100 mg/kg, time infinity, route oral; settings: in vivo
[12] = Oral bioavailability in CD-1 mouse at 100 mg/kg; type: ADME, organism-based; settings: in vivo
[13] = Plasma concentration in CD-1 mouse at 15 mg/kg, ip measured after 0.5 hrs; type: ADME, organism-based
[14] = Plasma concentration in CD-1 mouse at 15 mg/kg, ip measured after 1 hr; type: ADME, organism-based
[15] = Plasma concentration in CD-1 mouse at 15 mg/kg, ip measured after 3 hrs; type: ADME, organism-based; settings: in vivo, BLD = below limit of detection
[16] = Plasma concentration in CD-1 mouse at 50 mg/kg, ip measured after 0.5 hrs; type: ADME, organism-based
[17] = Plasma concentration in CD-1 mouse at 50 mg/kg, ip measured after 1 hr; type: ADME, organism-based
[18] = Plasma concentration in CD-1 mouse at 50 mg/kg, ip measured after 3 hrs; type: ADME, organism-based
[19] = Plasma concentration in CD-1 mouse at 100 mg/kg, ip measured after 0.5 hrs; type: ADME, organism-based
[20] = Plasma concentration in CD-1 mouse at 100 mg/kg, ip measured after 1 hr; type: ADME, organism-based
[21] = Plasma concentration in CD-1 mouse at 100 mg/kg, ip measured after 3 hrs; type: ADME, organism-based
[22] = Plasma concentration in CD-1 mouse at 100 mg/kg, ip measured after 6 hrs; type: ADME, organism-based
MIA PaCa-2 [23] = assay: Antitumor activity against human MIAPaCa2 cells xenografted in nude-Fox1nu mouse assessed as tumor regression at 30 to 100 mg/kg, ip administered once daily for 5 days; type: functional, organism-based
MIA PaCa-2 [24] = assay: Antitumor activity against human MIAPaCa2 cells xenografted in nude-Fox1nu mouse assessed as reduction in tumor volume at 30 to 100 mg/kg, ip administered once daily for 17 days measured three times a week during compound dosing; type: functional, organism-based
[25] = Toxicity in nude-Fox1nu mouse xenografted with human MIAPaCa2 cells assessed as body weight loss at 30 to 100 mg/kg, ip administered once daily for 17 days measured 2 times a week during compound dosing; type: organism-based; settings: in vivo, 408 h
[26] = Toxicity in nude-Fox1nu mouse xenografted with human MIAPaCa2 cells assessed as adverse effect at 30 to 100 mg/kg, ip administered once daily for 17 days measured during compound dosing; type: organism-based; settings: in vivo, 408 h
Mus musculus [27] = assay: Ex vivo inhibition of KRAS G12C mutant in human MIAPaCa2 cells xenografted in nude-Fox1nu mouse assessed as target engagement in tumor at 30 to 100 mg/kg, ip administered once daily for 1 day measured 3 to 24 hrs post dose relative to control; type: functional; parameters: scale not given: the % may be the effect or the level left
Mus musculus [28] = assay: Ex vivo inhibition of KRAS G12C mutant in human MIAPaCa2 cells xenografted in nude-Fox1nu mouse assessed as target engagement in tumor at 30 to 100 mg/kg, ip administered once daily for 5 days measured 3 to 24 hrs post dose relative to control; type: functional; parameters: scale not given: the % may be the effect or the level left

SMILES: C=CC(=O)N1CCN(c2nc(O[C@@H](C)CN(C)C)nc3c2CCN(c2cc(O)cc4ccccc24)C3)CC1
IC50 (GTPase KRas): 0.54 µM | Activity [1]: 21%

SMILES: C=CC(=O)N1CCN(c2ncnc3c2CCN(c2cc(O)ccc2F)C3)CC1
Activity [2]: 2% | IC50 (GTPase KRas): > 16 µM

SMILES: C=CC(=O)N1CCN(c2ncnc3c2CCN(c2c(C)ccc4[nH]ncc24)C3)CC1
Activity [2]: 22% | IC50 (GTPase KRas): > 16 µM

Activity [1]: 84% | Papp A→B at 1 µM (MDR1 [3]): 1.4 ×10⁻⁶ cm/s | Papp B→A at 1 µM (MDR1 [4]): 37 ×10⁻⁶ cm/s | fraction unbound at 1 µM [5]: 0.05 | clearance [6]: 46 mL/min/kg | half-life [7]: 57.6 min | Vd [8]: 0.53 L/kg | Cmax [9]: 590 ng/mL | Tmax [10]: 60 min | AUC(0-inf) [11]: 880 ng·h/mL | bioavailability [12]: 2.4% | concentration at 0.5 h [13]: 1500 ng/mL | concentration at 1 h [14]: 970 ng/mL | Cp [15]: Bld | concentration at 0.5 h [16]: 8300 ng/mL | concentration at 1 h [17]: 2600 ng/mL | concentration at 3 h [18]: 250 ng/mL | concentration at 0.5 h [19]: 26000 ng/mL | concentration at 1 h [20]: 17000 ng/mL | concentration at 3 h [21]: 1400 ng/mL | concentration at 6 h [22]: 1300 ng/mL
SMILES: C=CC(=O)N1CCN(c2nc(OC[C@@H]3CCCN3C)nc3c2CCN(c2cc(O)cc4ccccc24)C3)CC1
Activity (MIA PaCa-2 [23]): Active | Activity (MIA PaCa-2 [24]): Active | Activity [25]: Non-Toxic | Activity [26]: Non-Toxic | Activity (Mus musculus [27]): >65% | Activity (Mus musculus [28]): >65%

SMILES: C=CC(=O)N1CCN(c2nc(OCCCN(C)C)nc3c2CCN(c2cc(O)cc4ccccc24)C3)CC1
IC50 (GTPase KRas): 1.5 µM | Activity [1]: 22%

SMILES: C=CC(=O)N1CCN(c2ncnc3c2CCN(c2cc(O)cc4ccccc24)C3)CC1
Activity [2]: 99% | IC50 (GTPase KRas): 7.6 µM | Activity [1]: 8%

SMILES: C=CC(=O)N1CCN(c2nc(OCCN(C)C)nc3c2CCN(c2cc(O)cc4ccccc24)C3)CC1
IC50 (GTPase KRas): 1.9 µM | Activity [1]: 52%

SMILES: C=CC(=O)N1CCN(c2ncnc3c2CCN(c2cccc4ccc(O)cc24)C3)CC1
Activity [2]: 0% | IC50 (GTPase KRas): > 16 µM

SMILES: C=CC(=O)N1CCN(c2ncnc3c2CCN(c2cccc4ccccc24)C3)CC1
Activity [2]: 13% | IC50 (GTPase KRas): > 16 µM

SMILES: C=CC(=O)N1CCN(c2ncnc3c2CCN(c2c(O)cccc2F)C3)CC1
Activity [2]: 2% | IC50 (GTPase KRas): > 16 µM
